Data from patent publication US20190125888A1, “TARGETED CONJUGATES AND PARTICLES AND FORMULATIONS THEREOF” (priority 2015, published 2019).
Read-outs that look alike come from different tables or passages of the source.

Key:
[1] = Chrom LogP of maytansinoid conjugates; type: physicochemical
[2] = Ligand charge of maytansinoid conjugates; type: physicochemical
[3] = test system: NCI-H524 (ATCC) human lung cancer cells; type: cell-based
Protocol: FIG. 1 is a graph of various conjugates represented as bars and showing on the Y-axis their activity in an H524 proliferation assay with and without competition by octreotide. […] This illustrates the suprprising finding that only maytansinoid conjugates show activity that is dependent on the receptor.
Conjugates were assessed in an in vitro assay evaluating inhibition of cell proliferation. NCI-H524 (ATCC) human lung cancer cells were plated in 96 well, V-bottomed plates (Costar) at a concentration of 5,000 cells/well and 24 hours later were treated with compound for 6 hours and further incubated 66 hours. Compound starting dose was 20 μM and three fold serial dilutions were done for a total of ten points. After 6 hours of treatment, cells were spun down, the drug containing media was removed, and fresh complete medium was added and used to resuspend the cells, which were spun again. After removal of the wash media, the cells were resuspended in complete medium, then transferred into white walled, flat bottomed 96 well plates. […] Proliferation was measured using CellTiter Glo reagent using the standard protocol (Promega) and a Glomax multi+detection system (Promega). Percent proliferation inhibition was calculated using the following formula: % inhibition=(control-treatment)/control*100. Control is defined as vehicle alone. IC50 curves were generated using the nonlinear regression analysis (four parameter) with GraphPad Prism 6.
Conjugates were tested for their activity dependence on the somatostatin receptor. Active agent Z in the conjugate was selected from auristatin, carbazitaxel, DM1, doxorubicin, platinum, SN-38 and vinblastine. Active agent Z is connected to octreotide with various linkers. Proliferation IC50 values of the conjugates were measured. Proliferation IC50 values of the conjugates without octreotide competition were also measured. The ratio of IC50 with octreotide competition and IC50 without octreotide competition is an indicator of whether activity is at least particially dependent on bind to the somatostatin receptor. […] Therefore, the activity of conjugates comprising DM1 is dependent on the binding to the somatostatin receptor.

[4] = molecular target: human SSTR2 (Homo sapiens, UniProt P30874); test: Radioligand-receptor binding assay, [125I] somatostatin, membranes from SSTR2 expressing CHO-K1 cells
Protocol: These conjugates were also assessed in an in vitro assay evaluating binding to the somatostatin receptor 2 (SSTR2). A radioligand-receptor binding assay was conducted at Eurofins Panlabs (Taiwan) to determine the affinity of conjugates described herein to the SSTR2. The assay measures binding of radiolabeled ligand, [^125I] labeled somatostatin, to human SSTR2 using membrane preparations from SSTR2 expressing CHO-K1 cells. Membranes were incubated with radiolabeled somatostatin (0.03 nM) in the presence of conjugate/compound starting at a dose of 10 uM using 6× serial dilutions to obtain a 10-pt curve. After a four hour incubation, membranes were filtered and washed 3× and counted to determine the remaining [^125I] somatostatin bound to the receptor. IC50 values were determined by a non-linear, least squares regression analysis using MathIQ™ (ID Business Solutions Ltd., UK).

[5] = test system: human NCI-H69 SCLC; test: H69 xenograft efficacy study, tumor growth inhibition; type: in vivo, mice
Protocol: Applicants assessed the activity of maytansinoid conjugates in vivo. In these experiments, the ability of conjugates to affect the growth of human NCI-H69 SCLC was tested. For the in vivo study, 8 week old female NCR nude mice were inoculated subcutaneously into the right flank with 2 million cells in 1:1 RPMI 1640 (Invitrogen, Carlsbad, Calif.)/Matrigel® (BD Biosciences, San Jose, Calif.). Tumor measurements were taken twice weekly, using vernier calipers. Tumor volume was calculated using the formula: V=0.5×width×width×length.
When tumors approached a volume of 200 mm^3, mice were randomized into four groups of ten animals. Mice were treated with vehicle control (10% propylene glycol in water for injection) and maytansinoid conjugates (10% propylene glycol in water for injection). Final tumor volumes were analyzed using with a one-way analysis of variance and Tukey multiple comparison test.

[6] = read-out: H524 IC50 6 h, 6 hours treatment, further 66 hours incubation
[7] = read-out: H524 IC50 with 100 μM octreotide 6 h, with 100 μM octreotide competition, 6 h treatment

Sequence of human SSTR2 (P30874 whole entry): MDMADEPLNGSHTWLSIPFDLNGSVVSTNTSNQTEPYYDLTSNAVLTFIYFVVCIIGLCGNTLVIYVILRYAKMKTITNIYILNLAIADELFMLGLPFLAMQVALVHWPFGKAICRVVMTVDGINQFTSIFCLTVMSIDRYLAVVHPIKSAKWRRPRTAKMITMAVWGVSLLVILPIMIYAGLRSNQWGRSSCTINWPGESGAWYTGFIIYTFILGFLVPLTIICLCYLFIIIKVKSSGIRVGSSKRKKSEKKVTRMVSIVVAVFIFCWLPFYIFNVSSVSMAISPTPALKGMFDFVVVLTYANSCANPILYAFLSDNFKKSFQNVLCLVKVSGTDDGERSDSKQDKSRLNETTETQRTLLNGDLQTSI

## COc1cc2cc(c1Cl)N(C)C(=O)C[C@H](OC(=O)[C@H](C)N(C)C(=O)CCSSCCNC(=O)[C@@H](NC(=O)[C@@H]1CSSC[C@H](NC(=O)[C@@H](Cc3ccccc3)NC(=O)NC3CCCCC3)C(=O)N[C@@H](Cc3ccc(O)cc3)C(=O)N[C@H](Cc3c[nH]c4ccccc34)C(=O)N[C@@H](CCCCN)C(=O)N[C@@H]([C@@H](C)O)C(=O)N1)[C@@H](C)O)[C@]1(C)O[C@H]1[C@H](C)[C@@H]1C[C@@](O)(NC(=O)O1)[C@H](OC)/C=C/C=C(\C)C2 [Conjugate 20]
[1]
  chromatographic logP: 3.1
[2]
  Ligand charge: +1
[3]; [6]
  IC50: 11 nM
[3]; [7]
  IC50: 52 nM

## CCNC(=O)[C@@H](NC(=O)[C@@H]1CSSC[C@H](NC(=O)[C@@H](Cc2ccccc2)NC(=O)NCCSSCCC(=O)N(C)[C@@H](C)C(=O)O[C@H]2CC(=O)N(C)c3cc(cc(OC)c3Cl)C/C(C)=C/C=C/[C@@H](OC)[C@@]3(O)C[C@H](OC(=O)N3)[C@@H](C)[C@@H]3O[C@@]23C)C(=O)N[C@@H](Cc2ccc(O)cc2)C(=O)N[C@H](Cc2c[nH]c3ccccc23)C(=O)N[C@@H](CCCCN)C(=O)N[C@@H]([C@@H](C)O)C(=O)N1)[C@@H](C)O [Conjugate 53]
[1]
  chromatographic logP: 2.45
[2]
  Ligand charge: +1
[3]; [6]
  IC50: 42 nM
[3]; [7]
  IC50: 86 nM

## CCCCCCNC(=O)[C@@H](NC(=O)[C@@H]1CSSC[C@H](NC(=O)[C@@H](Cc2ccccc2)NC(=O)NCCSSCCC(=O)N(C)[C@@H](C)C(=O)O[C@H]2CC(=O)N(C)c3cc(cc(OC)c3Cl)C/C(C)=C/C=C/[C@@H](OC)[C@@]3(O)C[C@H](OC(=O)N3)[C@@H](C)[C@@H]3O[C@@]23C)C(=O)N[C@@H](Cc2ccc(O)cc2)C(=O)N[C@H](Cc2c[nH]c3ccccc23)C(=O)N[C@@H](CCCCN)C(=O)N[C@@H]([C@@H](C)O)C(=O)N1)[C@@H](C)O [Conjugate 52]
[1]
  chromatographic logP: 3.24
[2]
  Ligand charge: +1
[3]; [6]
  IC50: 23 nM
[3]; [7]
  IC50: 167 nM

## COc1cc2cc(c1Cl)N(C)C(=O)C[C@H](OC(=O)[C@H](C)N(C)C(=O)CCC(C)(C)SSC[C@H](NC(=O)[C@@H]1CSSC[C@H](NC(=O)[C@@H](Cc3ccccc3)NC(=O)Nc3ccccc3)C(=O)N[C@@H](Cc3ccc(O)cc3)C(=O)N[C@H](Cc3c[nH]c4ccccc34)C(=O)N[C@@H](CCCCN)C(=O)N[C@@H]([C@@H](C)O)C(=O)N1)C(N)=O)[C@]1(C)O[C@H]1[C@H](C)[C@@H]1C[C@@](O)(NC(=O)O1)[C@H](OC)/C=C/C=C(\C)C2 [Conjugate 5]
[2]
  Ligand charge: +1
[4]
  Ki: 0.32 nM
[3]; [6]
  IC50: 7.7 nM
[3]; [7]
  IC50: 317 nM

## CCNC(=O)N[C@H](Cc1ccccc1)C(=O)N[C@H]1CSSC[C@@H](C(=O)N[C@@H](CSSCCC(=O)N(C)[C@@H](C)C(=O)O[C@H]2CC(=O)N(C)c3cc(cc(OC)c3Cl)C/C(C)=C/C=C/[C@@H](OC)[C@@]3(O)C[C@H](OC(=O)N3)[C@@H](C)[C@@H]3O[C@@]23C)C(N)=O)NC(=O)[C@H]([C@@H](C)O)NC(=O)[C@H](CCCCN)NC(=O)[C@@H](Cc2c[nH]c3ccccc23)NC(=O)[C@H](Cc2ccc(O)cc2)NC1=O [Conjugate 39]
[2]
  Ligand charge: +1
[4]
  Ki: 0.07 nM
[3]; [6]
  IC50: 1.3 nM
[3]; [7]
  IC50: 12 nM

## COc1cc2cc(c1Cl)N(C)C(=O)C[C@H](OC(=O)[C@H](C)N(C)C(=O)CCSSC[C@H](NC(=O)[C@@H]1CSSC[C@H](NC(=O)[C@@H](Cc3ccccc3)NC(=O)NC3CCCCC3)C(=O)N[C@@H](Cc3ccc(O)cc3)C(=O)N[C@H](Cc3c[nH]c4ccccc34)C(=O)N[C@@H](CCCCN)C(=O)N[C@@H]([C@@H](C)O)C(=O)N1)C(=O)NCc1ccccc1)[C@]1(C)O[C@H]1[C@H](C)[C@@H]1C[C@@](O)(NC(=O)O1)[C@H](OC)/C=C/C=C(\C)C2 [Conjugate 26]
[2]
  Ligand charge: +1
[4]
  Ki: 1.42 nM
[3]; [6]
  IC50: 30 nM
[3]; [7]
  IC50: 106 nM

## COc1cc2cc(c1Cl)N(C)C(=O)C[C@H](OC(=O)[C@H](C)N(C)C(=O)CCSSC(C)(C)[C@H](NC(=O)[C@@H]1CSSC[C@H](NC(=O)[C@H](N)Cc3ccccc3)C(=O)N[C@@H](Cc3ccc(O)cc3)C(=O)N[C@H](Cc3c[nH]c4ccccc34)C(=O)N[C@@H](CCCCNC(=O)[C@@H](NC(=O)[C@@H](N)C(C)C)C(C)C)C(=O)N[C@@H]([C@@H](C)O)C(=O)N1)C(N)=O)[C@]1(C)O[C@H]1[C@H](C)[C@@H]1C[C@@](O)(NC(=O)O1)[C@H](OC)/C=C/C=C(\C)C2 [Conjugate 58]
[2]
  Ligand charge: +2
[4]
  Ki: 3980 nM
[3]; [6]
  IC50: 90 nM
[3]; [7]
  IC50: 250 nM

## COc1cc2cc(c1Cl)N(C)C(=O)C[C@H](OC(=O)[C@H](C)N(C)C(=O)CCSSC(C)(C)[C@H](NC(=O)[C@@H]1CSSC[C@H](NC(=O)[C@@H](Cc3ccccc3)NC(=O)NCc3ccc(C(F)(F)F)cc3)C(=O)N[C@@H](Cc3ccc(O)cc3)C(=O)N[C@H](Cc3c[nH]c4ccccc34)C(=O)N[C@@H](CCCCN)C(=O)N[C@@H]([C@@H](C)O)C(=O)N1)C(N)=O)[C@]1(C)O[C@H]1[C@H](C)[C@@H]1C[C@@](O)(NC(=O)O1)[C@H](OC)/C=C/C=C(\C)C2 [Conjugate 15]
[2]
  Ligand charge: +1
[4]
  Ki: 0.077 nM
[3]; [6]
  IC50: 17 nM
[3]; [7]
  IC50: 262 nM

## COc1cc2cc(c1Cl)N(C)C(=O)C[C@H](OC(=O)[C@H](C)N(C)C(=O)CCSSC[C@H](NC(=O)[C@@H]1CSSC[C@H](NC(=O)[C@@H](Cc3ccccc3)NC(=O)C(F)(F)F)C(=O)N[C@@H](Cc3ccc(O)cc3)C(=O)N[C@H](Cc3c[nH]c4ccccc34)C(=O)N[C@@H](CCCCN)C(=O)N[C@@H]([C@@H](C)O)C(=O)N1)C(N)=O)[C@]1(C)O[C@H]1[C@H](C)[C@@H]1C[C@@](O)(NC(=O)O1)[C@H](OC)/C=C/C=C(\C)C2 [Conjugate 29]
[2]
  Ligand charge: +1
[4]
  Ki: 0.23 nM
[3]; [6]
  IC50: 5.7 nM
[3]; [7]
  IC50: 28 nM

## COc1cc2cc(c1Cl)N(C)C(=O)C[C@H](OC(=O)[C@H](C)N(C)C(=O)CCSSC(C)(C)[C@H](NC(=O)CC[C@H](NC(=O)[C@@H]1CSSC[C@H](NC(=O)[C@H](N)Cc3ccccc3)C(=O)N[C@@H](Cc3ccc(O)cc3)C(=O)N[C@H](Cc3c[nH]c4ccccc34)C(=O)N[C@@H](CCCCN)C(=O)N[C@@H]([C@@H](C)O)C(=O)N1)C(N)=O)C(N)=O)[C@]1(C)O[C@H]1[C@H](C)[C@@H]1C[C@@](O)(NC(=O)O1)[C@H](OC)/C=C/C=C(\C)C2 [Conjugate 18]
[2]
  Ligand charge: +2
[4]
  Ki: 0.18 nM
[3]; [6]
  IC50: 19 nM
[3]; [7]
  IC50: 353 nM

## COc1cc2cc(c1Cl)N(C)C(=O)C[C@H](OC(=O)[C@H](C)N(C)C(=O)CCSSCCC(=O)NC[C@H](NC(=O)[C@@H]1CSSC[C@H](NC(=O)[C@H](N)Cc3ccccc3)C(=O)N[C@@H](Cc3ccc(O)cc3)C(=O)N[C@H](Cc3c[nH]c4ccccc34)C(=O)N[C@@H](CCCCN)C(=O)N[C@@H]([C@@H](C)O)C(=O)N1)C(N)=O)[C@]1(C)O[C@H]1[C@H](C)[C@@H]1C[C@@](O)(NC(=O)O1)[C@H](OC)/C=C/C=C(\C)C2 [Conjugate 44]
[2]
  Ligand charge: +2
[4]
  Ki: 0.022 nM
[3]; [6]
  IC50: 3.6 nM
[3]; [7]
  IC50: 218 nM
[5]; 0.7 mg/kg once weekly for two doses, Day 13
  TGI % Day 13: 58.9%
[5]; 0.7 mg/kg once weekly for two doses, Day 17
  TGI % Day 17: 56.7%
[5]; 0.7 mg/kg once weekly for two doses, Day 20
  TGI % Day 20: 59.6%
[5]; 0.7 mg/kg once weekly for two doses, Day 24
  TGI % Day 24: 53.1%
[5]; 0.7 mg/kg once weekly for two doses, Day 30
  TGI % Day 30: 56.1%
[5]; Dose 0.67 × 2 mg/kg, total dose 1.34 mg/kg
  TGI % at day 22: 60%
